According to ChEMBL document CHEMBL1152560, “Substituted 2-arylbenzothiazoles as kinase inhibitors: hit-to-lead optimization” (Bioorg Med Chem, 2009):

Tests used:
[1] = target: Serine/threonine-protein kinase B-raf (Homo sapiens) (UniProt P15056); experiment: Residual activity of Wild type B-RAF at 1 uM by microplate scintillation counting
[2] = target: Casein kinase II subunit alpha' (Homo sapiens) (UniProt P19784); experiment: Residual activity of CK2alpha2 at 0.1 uM by microplate scintillation counting
[3] = target: Ribosomal protein S6 kinase beta-2 (Homo sapiens) (UniProt Q9UBS0); experiment: Residual activity of S6Kbeta at 1 uM by microplate scintillation counting
[4] = target: PAS domain-containing serine/threonine-protein kinase (Homo sapiens) (UniProt Q96RG2); experiment: Residual activity of PASK at 1 uM by microplate scintillation counting
[5] = target: T1, Cytoplasmic tyrosine-protein kinase BMX (Homo sapiens) (UniProt P51813); experiment: Residual activity of BMX at 1 uM by microplate scintillation counting
T1 sequence (whole entry): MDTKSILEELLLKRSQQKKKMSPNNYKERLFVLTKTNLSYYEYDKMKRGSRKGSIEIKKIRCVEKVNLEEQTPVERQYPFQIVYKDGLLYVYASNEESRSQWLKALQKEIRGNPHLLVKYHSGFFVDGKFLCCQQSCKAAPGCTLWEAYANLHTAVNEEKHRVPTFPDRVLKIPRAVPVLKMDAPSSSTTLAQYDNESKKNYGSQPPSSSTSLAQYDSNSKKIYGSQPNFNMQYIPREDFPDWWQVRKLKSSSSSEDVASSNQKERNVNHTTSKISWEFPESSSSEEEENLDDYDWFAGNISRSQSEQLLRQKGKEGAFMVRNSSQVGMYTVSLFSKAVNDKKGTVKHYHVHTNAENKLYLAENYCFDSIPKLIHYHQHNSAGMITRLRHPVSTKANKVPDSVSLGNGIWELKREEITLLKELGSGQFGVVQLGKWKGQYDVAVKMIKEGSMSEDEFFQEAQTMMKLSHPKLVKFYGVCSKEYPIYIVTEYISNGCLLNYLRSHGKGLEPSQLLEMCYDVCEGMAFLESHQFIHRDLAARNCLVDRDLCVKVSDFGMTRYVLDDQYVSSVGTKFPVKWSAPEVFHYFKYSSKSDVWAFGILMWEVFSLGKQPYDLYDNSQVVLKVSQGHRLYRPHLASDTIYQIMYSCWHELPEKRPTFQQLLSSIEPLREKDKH

[6] = target: T1, Cytoplasmic tyrosine-protein kinase BMX (Homo sapiens); experiment: Residual activity of BMX at 10 uM by microplate scintillation counting
[7] = target: T2, cGMP-dependent protein kinase 2 (Homo sapiens) (UniProt Q13237); experiment: Residual activity of PRKG2 at 1 uM by microplate scintillation counting
T2 sequence (whole entry): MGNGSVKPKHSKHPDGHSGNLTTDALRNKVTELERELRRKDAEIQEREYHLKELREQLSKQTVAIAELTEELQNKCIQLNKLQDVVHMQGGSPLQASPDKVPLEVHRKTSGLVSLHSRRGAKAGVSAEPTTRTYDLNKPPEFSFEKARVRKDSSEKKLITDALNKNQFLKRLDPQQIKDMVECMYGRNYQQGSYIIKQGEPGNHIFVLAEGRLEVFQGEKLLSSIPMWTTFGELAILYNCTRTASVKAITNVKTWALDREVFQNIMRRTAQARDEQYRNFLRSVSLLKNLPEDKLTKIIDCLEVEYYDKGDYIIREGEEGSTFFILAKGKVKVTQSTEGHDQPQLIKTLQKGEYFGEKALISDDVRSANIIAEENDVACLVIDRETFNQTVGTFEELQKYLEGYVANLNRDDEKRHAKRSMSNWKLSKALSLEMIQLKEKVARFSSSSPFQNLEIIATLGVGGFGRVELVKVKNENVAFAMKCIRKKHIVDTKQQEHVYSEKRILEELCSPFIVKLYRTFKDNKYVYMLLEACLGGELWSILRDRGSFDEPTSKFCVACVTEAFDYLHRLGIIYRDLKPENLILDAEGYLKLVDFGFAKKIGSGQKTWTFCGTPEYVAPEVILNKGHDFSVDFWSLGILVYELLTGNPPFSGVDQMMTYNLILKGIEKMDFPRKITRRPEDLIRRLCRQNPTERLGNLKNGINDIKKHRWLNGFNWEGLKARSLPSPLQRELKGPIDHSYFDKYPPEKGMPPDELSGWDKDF

[8] = target: Activated CDC42 kinase 1 (Homo sapiens) (UniProt Q07912); experiment: Residual activity of ACK1 at 0.1 uM by microplate scintillation counting
[9] = target: T3, Ephrin type-B receptor 4 (Homo sapiens) (UniProt P54760); experiment: Residual activity of EPHB4 at 1 uM by microplate scintillation counting
T3 sequence (whole entry): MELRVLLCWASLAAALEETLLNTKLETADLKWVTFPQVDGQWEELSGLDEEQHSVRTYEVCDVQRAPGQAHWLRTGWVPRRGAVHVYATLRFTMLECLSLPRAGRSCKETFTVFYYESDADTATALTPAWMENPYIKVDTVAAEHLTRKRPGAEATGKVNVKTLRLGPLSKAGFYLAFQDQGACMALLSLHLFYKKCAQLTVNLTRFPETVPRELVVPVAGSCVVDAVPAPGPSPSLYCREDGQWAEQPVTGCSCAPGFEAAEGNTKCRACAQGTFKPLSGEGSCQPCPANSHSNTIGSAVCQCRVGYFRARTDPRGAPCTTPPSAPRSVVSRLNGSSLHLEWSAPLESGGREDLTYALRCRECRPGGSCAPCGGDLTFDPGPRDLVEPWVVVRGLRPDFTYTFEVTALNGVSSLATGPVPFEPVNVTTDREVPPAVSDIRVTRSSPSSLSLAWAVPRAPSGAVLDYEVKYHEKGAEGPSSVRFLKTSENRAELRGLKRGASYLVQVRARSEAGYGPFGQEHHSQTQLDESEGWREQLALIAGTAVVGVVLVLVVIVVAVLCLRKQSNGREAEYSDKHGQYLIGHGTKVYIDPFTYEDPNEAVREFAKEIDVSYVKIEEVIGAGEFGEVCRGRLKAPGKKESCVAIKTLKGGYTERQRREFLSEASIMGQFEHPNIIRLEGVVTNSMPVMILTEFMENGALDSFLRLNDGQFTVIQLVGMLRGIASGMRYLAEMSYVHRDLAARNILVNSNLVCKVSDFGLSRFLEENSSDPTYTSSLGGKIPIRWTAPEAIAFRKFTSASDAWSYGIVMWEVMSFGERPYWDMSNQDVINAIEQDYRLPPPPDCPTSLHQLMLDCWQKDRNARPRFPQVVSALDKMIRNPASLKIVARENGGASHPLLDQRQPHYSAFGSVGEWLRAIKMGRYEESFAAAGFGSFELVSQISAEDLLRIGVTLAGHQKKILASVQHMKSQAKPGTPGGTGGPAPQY

[10] = target: Serine/threonine-protein kinase 26 (Homo sapiens) (UniProt Q9P289); experiment: Residual activity of MST4 at 0.1 uM by microplate scintillation counting
[11] = target: CDK1/Cyclin A (Homo sapiens) (UniProt P06493+P20248); experiment: Residual activity of CDK1/Cyclin A at 1 uM by microplate scintillation counting; format: protein-complex assay
Sequence of CDK1/Cyclin A (Homo sapiens) (P06493 whole entry, looked up): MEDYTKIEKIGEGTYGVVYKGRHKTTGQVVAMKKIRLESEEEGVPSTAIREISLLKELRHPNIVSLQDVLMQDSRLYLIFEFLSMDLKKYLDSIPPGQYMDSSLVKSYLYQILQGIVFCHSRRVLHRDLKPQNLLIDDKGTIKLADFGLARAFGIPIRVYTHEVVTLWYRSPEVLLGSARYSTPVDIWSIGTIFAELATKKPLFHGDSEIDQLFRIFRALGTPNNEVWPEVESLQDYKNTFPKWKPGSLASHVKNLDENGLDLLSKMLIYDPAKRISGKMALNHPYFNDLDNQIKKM
Sequence of CDK1/Cyclin A (Homo sapiens) (P20248 whole entry, looked up): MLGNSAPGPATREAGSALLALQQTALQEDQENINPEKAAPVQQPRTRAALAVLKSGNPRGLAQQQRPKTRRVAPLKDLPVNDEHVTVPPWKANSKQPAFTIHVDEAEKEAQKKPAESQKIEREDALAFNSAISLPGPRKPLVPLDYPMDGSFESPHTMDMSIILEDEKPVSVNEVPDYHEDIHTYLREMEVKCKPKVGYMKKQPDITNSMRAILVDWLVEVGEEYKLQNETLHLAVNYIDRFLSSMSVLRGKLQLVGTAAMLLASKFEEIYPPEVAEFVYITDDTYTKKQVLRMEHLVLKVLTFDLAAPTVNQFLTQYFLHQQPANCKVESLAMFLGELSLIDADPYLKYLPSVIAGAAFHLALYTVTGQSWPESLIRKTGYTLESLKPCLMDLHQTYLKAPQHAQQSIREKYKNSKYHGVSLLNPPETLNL

Sequence of Ribosomal protein S6 kinase beta-2 (Homo sapiens) (Q9UBS0 whole entry, the tested form may be a part): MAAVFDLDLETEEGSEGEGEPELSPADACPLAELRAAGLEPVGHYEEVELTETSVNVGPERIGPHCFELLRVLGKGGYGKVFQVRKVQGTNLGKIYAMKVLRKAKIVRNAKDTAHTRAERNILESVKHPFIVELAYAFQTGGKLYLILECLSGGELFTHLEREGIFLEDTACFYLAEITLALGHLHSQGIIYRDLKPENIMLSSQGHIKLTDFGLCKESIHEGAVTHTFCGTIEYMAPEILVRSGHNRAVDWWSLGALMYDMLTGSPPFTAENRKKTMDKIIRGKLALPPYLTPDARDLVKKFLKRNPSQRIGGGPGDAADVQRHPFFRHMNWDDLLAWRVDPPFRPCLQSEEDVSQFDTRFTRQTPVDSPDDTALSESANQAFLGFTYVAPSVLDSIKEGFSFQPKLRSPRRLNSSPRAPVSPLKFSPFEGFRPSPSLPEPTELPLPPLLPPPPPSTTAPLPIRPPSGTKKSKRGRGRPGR
Sequence of Activated CDC42 kinase 1 (Homo sapiens) (Q07912 whole entry, looked up): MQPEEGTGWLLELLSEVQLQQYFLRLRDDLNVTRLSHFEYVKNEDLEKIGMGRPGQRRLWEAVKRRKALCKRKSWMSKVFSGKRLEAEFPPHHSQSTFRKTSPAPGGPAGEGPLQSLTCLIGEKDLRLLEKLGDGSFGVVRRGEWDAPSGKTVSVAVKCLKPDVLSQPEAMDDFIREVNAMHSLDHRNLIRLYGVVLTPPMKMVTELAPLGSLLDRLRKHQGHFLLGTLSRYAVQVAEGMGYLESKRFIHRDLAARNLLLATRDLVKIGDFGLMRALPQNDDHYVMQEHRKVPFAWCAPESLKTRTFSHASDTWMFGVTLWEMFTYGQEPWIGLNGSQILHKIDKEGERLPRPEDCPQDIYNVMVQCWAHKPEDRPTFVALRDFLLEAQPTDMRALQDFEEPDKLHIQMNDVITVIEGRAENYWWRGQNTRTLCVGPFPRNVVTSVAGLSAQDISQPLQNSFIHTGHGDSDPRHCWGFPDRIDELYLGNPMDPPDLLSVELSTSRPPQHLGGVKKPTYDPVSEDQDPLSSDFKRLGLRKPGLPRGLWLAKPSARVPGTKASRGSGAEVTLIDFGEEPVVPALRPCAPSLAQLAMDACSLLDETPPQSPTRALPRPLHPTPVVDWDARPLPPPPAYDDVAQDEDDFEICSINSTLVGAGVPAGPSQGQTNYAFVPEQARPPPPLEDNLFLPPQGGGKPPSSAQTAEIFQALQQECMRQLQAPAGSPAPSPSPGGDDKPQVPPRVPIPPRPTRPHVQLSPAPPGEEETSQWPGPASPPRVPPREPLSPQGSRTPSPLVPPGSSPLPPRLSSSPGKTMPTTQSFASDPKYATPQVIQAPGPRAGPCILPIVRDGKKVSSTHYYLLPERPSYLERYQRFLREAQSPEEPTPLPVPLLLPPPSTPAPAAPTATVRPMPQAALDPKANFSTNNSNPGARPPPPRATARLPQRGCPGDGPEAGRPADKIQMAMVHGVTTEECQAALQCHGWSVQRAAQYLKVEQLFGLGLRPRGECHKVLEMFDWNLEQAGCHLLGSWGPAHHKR
Sequence of Casein kinase II subunit alpha' (Homo sapiens) (P19784 whole entry, looked up): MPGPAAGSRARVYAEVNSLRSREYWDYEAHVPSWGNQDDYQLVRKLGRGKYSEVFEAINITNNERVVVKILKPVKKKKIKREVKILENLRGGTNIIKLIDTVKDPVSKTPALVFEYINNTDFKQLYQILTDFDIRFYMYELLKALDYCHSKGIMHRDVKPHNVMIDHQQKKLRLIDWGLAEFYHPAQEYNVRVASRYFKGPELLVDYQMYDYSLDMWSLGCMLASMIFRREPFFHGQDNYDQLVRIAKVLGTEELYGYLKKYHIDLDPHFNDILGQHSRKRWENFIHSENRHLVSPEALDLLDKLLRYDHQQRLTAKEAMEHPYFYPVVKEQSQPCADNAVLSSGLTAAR
Sequence of PAS domain-containing serine/threonine-protein kinase (Homo sapiens) (Q96RG2 whole entry, the tested form may be a part): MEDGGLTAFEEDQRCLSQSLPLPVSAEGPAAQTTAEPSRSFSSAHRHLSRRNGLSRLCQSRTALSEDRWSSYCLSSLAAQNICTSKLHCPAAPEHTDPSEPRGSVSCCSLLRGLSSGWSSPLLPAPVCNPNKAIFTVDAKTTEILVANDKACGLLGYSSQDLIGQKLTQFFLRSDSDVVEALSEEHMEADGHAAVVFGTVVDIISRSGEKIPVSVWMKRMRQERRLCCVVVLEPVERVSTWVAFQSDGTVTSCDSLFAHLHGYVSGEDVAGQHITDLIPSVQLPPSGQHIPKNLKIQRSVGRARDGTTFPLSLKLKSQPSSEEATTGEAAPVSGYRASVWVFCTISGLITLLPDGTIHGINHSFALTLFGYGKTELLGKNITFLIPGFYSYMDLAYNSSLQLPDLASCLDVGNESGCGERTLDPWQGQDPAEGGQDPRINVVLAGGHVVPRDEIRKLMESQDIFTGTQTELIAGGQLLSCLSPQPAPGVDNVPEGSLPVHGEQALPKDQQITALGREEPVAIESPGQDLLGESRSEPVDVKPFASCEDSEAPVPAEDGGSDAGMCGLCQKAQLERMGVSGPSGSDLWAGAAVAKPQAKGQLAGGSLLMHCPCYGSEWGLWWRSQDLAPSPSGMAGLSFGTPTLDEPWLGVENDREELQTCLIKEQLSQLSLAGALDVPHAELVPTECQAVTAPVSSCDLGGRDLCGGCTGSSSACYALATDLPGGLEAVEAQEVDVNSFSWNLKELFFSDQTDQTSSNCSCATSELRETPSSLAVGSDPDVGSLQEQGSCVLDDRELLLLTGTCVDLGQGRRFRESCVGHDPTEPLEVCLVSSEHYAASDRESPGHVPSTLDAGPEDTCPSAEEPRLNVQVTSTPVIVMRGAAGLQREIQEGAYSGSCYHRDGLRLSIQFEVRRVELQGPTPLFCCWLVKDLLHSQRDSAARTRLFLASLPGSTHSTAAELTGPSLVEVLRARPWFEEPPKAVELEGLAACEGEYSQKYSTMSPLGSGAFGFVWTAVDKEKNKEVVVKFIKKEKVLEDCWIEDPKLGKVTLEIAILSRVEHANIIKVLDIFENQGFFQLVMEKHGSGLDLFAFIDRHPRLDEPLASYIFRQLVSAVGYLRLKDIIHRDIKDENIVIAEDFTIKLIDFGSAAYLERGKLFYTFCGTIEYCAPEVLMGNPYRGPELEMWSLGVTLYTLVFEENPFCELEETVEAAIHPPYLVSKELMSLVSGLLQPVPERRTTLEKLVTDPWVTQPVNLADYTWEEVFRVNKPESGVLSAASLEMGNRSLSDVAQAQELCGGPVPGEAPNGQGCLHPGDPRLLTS
Sequence of Serine/threonine-protein kinase 26 (Homo sapiens) (Q9P289 2-416 limits assumed): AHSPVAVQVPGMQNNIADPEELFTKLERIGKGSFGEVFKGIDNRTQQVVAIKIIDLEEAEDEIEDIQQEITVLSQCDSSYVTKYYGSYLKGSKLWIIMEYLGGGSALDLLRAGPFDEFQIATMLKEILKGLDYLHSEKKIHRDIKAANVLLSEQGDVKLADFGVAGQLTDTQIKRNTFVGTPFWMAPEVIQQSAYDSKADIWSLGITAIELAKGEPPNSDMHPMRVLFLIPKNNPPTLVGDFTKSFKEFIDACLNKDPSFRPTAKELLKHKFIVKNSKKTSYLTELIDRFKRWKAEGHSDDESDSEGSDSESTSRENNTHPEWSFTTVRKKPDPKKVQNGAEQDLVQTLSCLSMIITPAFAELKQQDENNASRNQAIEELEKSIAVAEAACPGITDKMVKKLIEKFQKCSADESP

Row | residual activity [1] | residual activity [2] | residual activity [3] | residual activity [4] | residual activity [5] | residual activity [6] | residual activity [7] | residual activity [8] | residual activity [9] | residual activity [10] | residual activity [11] | Compound
1 | 79% | 98% | 56% | 88% | 122% | 156% | 96% | 96% | 127% | 106% | 101% | COc1cc2c(Oc3ccc(-c4nc5ccccc5s4)cc3)ncnc2cc1OCCCN1CCN(C)CC1
2 | 77% | 91% | 54% | 94% | 127% | 138% | 84% | 105% | 127% | 93% | 111% | COc1cc2c(Oc3ccc(-c4nc5ccccc5s4)cc3)ncnc2cc1OCCCN1CCCC1
3 | 83% | 88% | 41% | 83% | 128% | 44% | 85% | 87% | 114% | 107% | 102% | COc1cc2c(Oc3ccc(-c4nc5ccccc5s4)cc3F)ncnc2cc1OCCCN1CCN(C)CC1
